Values after ≈ are worked out from the molar mass of the structure shown.

Test [1] addresses Reduced folate carrier (Homo sapiens). Briefly: Ability to compete with methotrexate transport in human HeLa cells was determined. Particulars: read-out: I50.
The target of test [2] is T1, Dihydrofolate reductase (Homo sapiens, UniProt P00374).
T1 sequence (P00374 whole entry): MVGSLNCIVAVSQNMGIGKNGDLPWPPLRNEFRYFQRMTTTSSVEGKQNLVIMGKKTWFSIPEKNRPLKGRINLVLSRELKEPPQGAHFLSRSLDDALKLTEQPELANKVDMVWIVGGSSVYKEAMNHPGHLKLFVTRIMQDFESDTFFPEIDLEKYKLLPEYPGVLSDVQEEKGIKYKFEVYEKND
Put plainly: Ability to inhibit human HeLa cell dihydrofolate reductase in vitro was determined.

Test [3] has as its target Reduced folate carrier (Homo sapiens). Briefly: Ability to compete with methotrexate transport in human HeLa cells was determined. Particulars: read-out: I50. The source holds these as a separate data set.
The target of the next test is T2, Thymidylate synthase (Lactobacillus casei, UniProt P00469).
T2 sequence (P00469 whole entry): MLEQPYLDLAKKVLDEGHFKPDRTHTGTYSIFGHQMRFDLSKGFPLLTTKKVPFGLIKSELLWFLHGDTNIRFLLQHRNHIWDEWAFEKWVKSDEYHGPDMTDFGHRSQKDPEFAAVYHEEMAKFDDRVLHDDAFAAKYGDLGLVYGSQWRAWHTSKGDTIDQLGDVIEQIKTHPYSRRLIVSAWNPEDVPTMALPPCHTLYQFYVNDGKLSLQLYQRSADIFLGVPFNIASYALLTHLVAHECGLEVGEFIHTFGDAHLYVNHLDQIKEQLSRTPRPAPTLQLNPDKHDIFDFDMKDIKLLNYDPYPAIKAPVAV
Put plainly: Ability to inhibit Lactobacillus casei thymidylate synthase in vitro was determined. The arrangement: species or system Lacticaseibacillus casei. Particulars: read-out: I50.

Test [4] concerns the target Dihydrofolate reductase (Lactobacillus casei, UniProt P00381). Briefly: Ability to inhibit Lactobacillus casei dihydrofolate reductase in vitro was determined.
The test system of test [5] is Lacticaseibacillus casei. Briefly: (§1) The compound was tested for inhibition of growth of Lactobacillus casei (ATCC 7469) at 0.1 ng/ml. The class given is functional.
Test [6] has as its system Enterococcus faecium. Briefly: The compound was tested for inhibition of growth of Streptococcus faecium (ATCC 8043) at 2.0 ng/ml. The format is functional.
The subject of test [7] is Enterococcus faecium. Put plainly: The compound was tested for inhibition of growth of Streptococcus faecium (ATCC 8043) at 0.1 ng/ml. The class given is functional, organism-based. Particulars: read-out: I 50.
In test [8] the test system is Lacticaseibacillus casei. The description is as §1. The conditions noted are these: read-out: I 50. The class given is functional, organism-based.
Test [9] has as its system Lacticaseibacillus casei. Briefly: The compound was tested for inhibition of growth of Lactobacillus casei at 0.1 ng/ml (ATCC 7469). The conditions noted are these: read-out: I 50. The class given is functional, organism-based.

Dihydrofolate reductase (Lactobacillus casei, UniProt P00381), sequence (P00381 whole entry): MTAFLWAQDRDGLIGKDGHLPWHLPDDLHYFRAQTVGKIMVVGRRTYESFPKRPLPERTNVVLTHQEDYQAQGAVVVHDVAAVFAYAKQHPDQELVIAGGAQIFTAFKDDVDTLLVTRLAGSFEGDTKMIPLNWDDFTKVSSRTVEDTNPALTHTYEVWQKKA

`Nc1nc(N)c2nc(CSc3ccc(C(=O)NC(CCC(=O)O)C(=O)O)cc3)cnc2n1` (stereo unspecified): the IC50 in test [1] was found to be 2700 nM.

At Dihydrofolate reductase [2], `Nc1nc(N)c2nc(COc3ccc(C(=O)NC(CCC(=O)O)C(=O)O)cc3)cnc2n1` (stereo unspecified) yielded an IC50 of 740 nM.

On to `Nc1nc(N)c2nc(CCSc3ccc(C(=O)NC(CCC(=O)O)C(=O)O)cc3)cnc2n1` (stereo unspecified), for which the IC50 in [3] was 25 µM; on Thymidylate synthase, 60 µM; on Dihydrofolate reductase [4], 400 nM. The same compound had an inhibition at 0.0001 µg/mL in the test on Lacticaseibacillus casei [5] of 50%. This compound had an inhibition at 0.002 µg/mL in the test on Enterococcus faecium [6] of 50%.

For the compound `Nc1nc(N)c2nc(CCSc3ccc(C(=O)O)cc3)cnc2n1`, the IC50 in the test on Enterococcus faecium [7] and in the test with Lacticaseibacillus casei [8] was 0.1 µg/mL (≈ 0.292 µM) throughout.

Take `COC(=O)c1ccc(SCCc2cnc3nc(N)nc(N)c3n2)cc1`: the IC50 is 0.4 µg/mL (≈ 1.12 µM) with Lacticaseibacillus casei [9] and 0.016 µg/mL (≈ 0.0449 µM) in the test with Enterococcus faecium [7].

(Values after ChEMBL document CHEMBL1121493, “Folate analogues altered in the C9-N10 bridge region. 16. Synthesis and antifolate activity of 11-thiohomoaminopterin” (J Med Chem, 1980).)
